# Experimental data published in patent US11919880B2, “HCV protease inhibitors” (The Regents of the University of California, priority 2020, dated 2024).
# Where “and” joins values, the source holds several entries; their conditions need not be identical. Equal entries are not always repeated. Where two headings read alike, the source gives them in different places.
# Assays:
# [1] = test system: sub-genomic HCV GT1b replicon (BM4-5 FEO), GT1b WT; assay: HCV replicon assay (luciferase antiviral efficacy); type: cell-based, hepatitis C virus; settings: BM4-5 FEO cells, 48 h, read-out: EC50 ± SD Gt 1b wt
# Method: (§1) The 20 compounds from class C were tested […] for inhibition of viral replication (GT1b wild-type) in BM4-5 FEO cells and for mammalian cell cytotoxicity. The numbers of virus particles were evaluated by quantifying luciferase produced during the virus life cycle^41 while toxicity was evaluated using a cell viability assay. […] Prior to additional biochemical studies, several key chemical properties for each of the Class C molecules were determined.
# Replicon construct. The BM4-5 replicon is a sub-genomic HCV GT1b replicon that contains adaptive mutation of serine in the NS5A region^41. The firefly luciferase gene was added into the BM4-5 replicon to generate BM4-5 FEO replicon. The construction procedures have been previously described^42.
# (§2) Luciferase antiviral efficacy and cells viability assays. BM4-5 FEO replicon approximately 10,000 cells in 100 μL of medium were seeded into 96-well plates and incubate for 6 h for attachment. Then, the compounds were added at to the wells in specific concentration and incubate for 48 h. The luciferase assay (Bright-Glo; Promega) was carried out according to the manufacturer's instructions. Luciferase activity was determined using a microplate luminometer (Veritas microplate luminometer; Turner Biosystems). For cells viability assays, BM4-5 FEO at the density 10,000 cells in 100 μL medium was incubated at 37° C. for 6 h for attachment, then the compounds were added and incubated for another 48 hours. The number of living cells were measured by Cell Titer-blue assay (Promega). The fluorescence absorption (560Ex/590Em) for 96-well plate was read by Benchmark Scientific MR9600 with. The activity and toxicity of each compound were measured by at least six different concentrations in triplicate.
# [2] = molecular target: T1, recombinant HCV NS3/4A GT1b WT (Hepatitis C virus genotype 1b, UniProt Q9WMX2); assay: biochemical; type: biochemical
# T1 construct: recombinant HCV NS3/4A GT1b WT
# Method: (§3) In order to validate that this group of molecules elicit their cellular effects via inhibition of the viral protease, we incubated compounds 1, 12 and 22 with recombinant NS3/4A protease GT1b and an inhibitor-resistant mutant containing a D168A mutation. D168 is located in the S2 and S4 sub-pockets and mutations in these sub-pockets can cause significant resistance to the inhibitors resulting in decreased activity of peptidomimetic inhibitors^21,37-38. […] As a control, potency was evaluated using the approved HCV protease inhibitor, simeprevir.
# (§4) HCV NS3/4A enzymatic inhibition assay. The activities of two proteases (recombinant HCV NS3/4A GT1b WT and full-length HCV NS3/4A GT1b D168A) were measured using a fluorogenic substrate, Ac-Glu-Glu-Val-Val-Ala-Cys-AMC (Sigma-Aldrich) where AMC corresponds to 7-amino-4-methylcourmarin. Assays were performed in 50 mM HEPES pH 7.4, 15 mM NaCl, 0.01% Triton X-100, 10 mM DTT in a black 384-well microplate (BD Falcon). […] Fluorescence was monitored at excitation and emission wavelengths of 360 nm and 460 nm in a Synergy™ HTX Multi-Mode Microplate Reader (BioTek). Data was visualized using Gen5™ Software (Biotek). The activity of enzyme was calculated from the change in relative fluorescence units (RFU) over time. For inhibition assays, compounds were pre-incubated with enzyme for 240 minutes prior to adding the enzyme/inhibitor mixture to the substrate. All assays were performed in triplicate wells.
# [3] = molecular target: T2, full-length HCV NS3/4A GT1b D168A (Hepatitis C virus genotype 1b, UniProt Q9WMX2, D1194A); assay: biochemical; type: biochemical
# T2 construct: full-length HCV NS3/4A GT1b D168A; His tag; made in house; host or cells: E. coli Rosetta 2(DE3)
# Method: as §3
# (§5) Plasmid construction and purification of HCV NS3/A protein. Drug resistant mutant D168A was generated by mutagenesis using NS3-containing recombinant plasmid (pETDuet-1 Hepatis C Virus NS3/4A, a gift from Michael Johnson, Addgene plasmid #16196) as a template. The single mutation of aspartic acid (D) to alanine (A) was introduced by mutagenesis at position 168 using specific primers (Forward: 5′-[…]-3′ and Reverse: 5′-[…]-3′). The over expression and purification were preformed followed the method that previously described^43. Rosetta 2(DE3) cells (Novagen) containing the modified recombinant plasmid with histidine tag were grown in Lysogeny Broth medium. The over expression was introduced by addition of Isopropyl β-D-1-thiogalactopyranoside (IPTG) to the final concentration of 0.5 mM and the bacteria were incubated at room temperature for 16 h. […] The solution was passed through Ni-NTA column and washed by buffer B (50 mM HEPES, pH 7.6, 500 mM NaCl, 50 mM imidazole, 5 mM β-MCE, 0.2% Triton X-100, and 15% glycerol). The His-tag fused protein was eluted by buffer C (50 mM HEPES, pH 7.6, 500 mM of NaCl, 500 mM of imidazole, 5 mM β-MCE, 0.2% Triton X-100, and 15% glycerol) followed by dialysis using buffer (50 mM HEPES, pH 7.6 and 500 mM of NaCl). Purified NS3/4A protein was concentrated an d buffer exchanged into buffer D (50 mM HEPES, pH 7.6, 500 mM of NaCl, 5 mM β-MCE, 0.2% Triton X-100, and 50% glycerol) using a protein concentrator 10 k (Amicon®).
# as §4
# BM4-5 human liver cells = assay: CellTiter-Blue cell viability assay; type: cell-based; settings: BM4-5 FEO cells, 48 h, read-out: LC50 ± SD
# Method: as §1, with “determined. Calculated polar surface area (PSA), lipophilicity (LogP), and molecular weight for each compound (Table IA) complied with the general criteria for drug-like molecules.” for “determined.”
# as §2
# [4] = test system: full-length HCV NS3/4A GT1b D168A; assay: biochemical; type: biochemical, hepatitis C virus; settings: for IC50—D168A/IC50—wt ratio: D168A mutant versus wt protease
# Method: as §3, §5, §4
# [5] = Potentiometric titration, Sirius T3 instrument; type: physicochemical
# From the text: As highlighted in Scheme 1, the tryptophan derived HCV NS3/4 protease inhibitors, 21 and 22, were synthesized starting from 3-(piperidine-1-yl)propan-1-amine (23), which could be accessed in two steps from commercially available N-(bromopropyl)phthalimide and piperidine, and N-Boc protected L-tryptophan (24). Thus, HBTU mediated coupling of […] and 24, followed by N-Boc deprotection and carbamoylation reaction with the appropriate isocyanate provided the desired compounds. 21 and 22. These test compounds were characterized by ^1H-NMR, ^13C-NMR, and HRMS. In addition, experimental pKa values, lipophilicity (LogP), and LogD7.4 of 22 were determined via potentiometric titrations using a Sirius T3 instrument. Compounds 21 and 22, as well as the 20 compounds from the primary screen, were then tested in cell-based assays to evaluate activity against HCV and toxicity to the host cells (Table 2).
# bovine trypsin = molecular target: T3, bovine trypsin (Bos taurus, UniProt P00760); assay: Counter-screening assay, trypsin; type: biochemical; settings: 13.08 and 14.68, 5.2 μM of 1, 12, and 22, respectively; 40 nM enzyme
# T3 construct: purchased Sigma
# Method: (§6) In addition, we tested these compounds for inhibition against the fungal serine protease, proteinase K that is structurally related to several mammalian serine proteases such as the proprotein convertase enzymes and furin^44.
# (§7) Counter-screening assay. Counter-screening assays were performed with 40 nM of bovine trypsin (Sigma), pig pancreatic elastase (Sigma), human chymotrypsin and proteinase k and 60 μM of the appropriate fluorogenic substrates for trypsin, elastase, chymotrypsin, and proteinase K are Boc-Leu-Arg-Arg-AMC (trypsin), Me-Arg-Arg-Pro-Val-AMC (elastase) and Suc-Arg-Arg-Pro-Phe-AMC (chymotrypsin and proteinase K). Assays were performed in 50 mM HEPES pH 7.4, 15 mM NaCl, 0.01% Triton X-100 in black 96-well microplates (BD Falcon) at a final volume of 50 μL. The final concentration of DMSO in each well was 2.5%. Fluorescence was measured as outlined above.
# pig pancreatic elastase = molecular target: T4, pig pancreatic elastase (Sus scrofa, UniProt P00772); assay: Counter-screening assay, elastase; type: biochemical; settings: 13.08 and 14.68, 5.2 μM of 1, 12, and 22, respectively; 40 nM enzyme
# T4 construct: purchased Sigma
# Method: as §6, §7
# human chymotrypsin = human chymotrypsin (Homo sapiens, UniProt P17538); assay: Counter-screening assay, chymotrypsin; type: biochemical; settings: 13.08 and 14.68, 5.2 μM of 1, 12, and 22, respectively; 40 nM enzyme
# Method: as §6, §7
# proteinase K = proteinase K (Parengyodontium album, UniProt P06873); assay: Counter-screening assay, proteinase K; type: biochemical, fungal; settings: 13.08 and 14.68, 5.2 μM of 1, 12, and 22, respectively; 40 nM enzyme
# Method: as §6, §7
# [6] = 40 nM enzyme, 60 μM Ac-Glu-Glu-Val-Val-Ala-Cys-AMC, 240 min pre-incubation, read-out: IC50 GT1b WT
# [7] = 40 nM enzyme, 60 μM Ac-Glu-Glu-Val-Val-Ala-Cys-AMC, 240 min pre-incubation, read-out: IC50 GT1b D168A
# T1 sequence (Q9WMX2 1658-1711): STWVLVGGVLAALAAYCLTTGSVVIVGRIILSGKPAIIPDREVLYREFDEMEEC
# T1 sequence (Q9WMX2 1027-1657): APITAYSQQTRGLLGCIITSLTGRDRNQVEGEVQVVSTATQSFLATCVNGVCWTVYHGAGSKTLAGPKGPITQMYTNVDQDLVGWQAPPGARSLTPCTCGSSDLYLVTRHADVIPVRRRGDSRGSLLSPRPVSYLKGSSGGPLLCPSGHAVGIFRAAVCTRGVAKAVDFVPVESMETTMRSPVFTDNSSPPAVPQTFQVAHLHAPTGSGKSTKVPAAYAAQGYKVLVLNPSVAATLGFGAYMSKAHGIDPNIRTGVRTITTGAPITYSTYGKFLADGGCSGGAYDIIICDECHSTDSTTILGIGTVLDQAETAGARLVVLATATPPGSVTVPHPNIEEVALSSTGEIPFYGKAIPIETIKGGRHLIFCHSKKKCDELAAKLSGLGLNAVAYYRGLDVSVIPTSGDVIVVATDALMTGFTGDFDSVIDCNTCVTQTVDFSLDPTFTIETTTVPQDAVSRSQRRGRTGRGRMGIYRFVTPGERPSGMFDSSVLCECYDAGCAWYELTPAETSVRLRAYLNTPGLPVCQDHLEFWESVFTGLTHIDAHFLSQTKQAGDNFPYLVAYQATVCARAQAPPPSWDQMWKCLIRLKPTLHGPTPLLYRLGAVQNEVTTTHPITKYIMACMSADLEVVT
# T2 sequence (Q9WMX2 1027-1657, looked up, stated change not applied): as the sequence (Q9WMX2 1027-1657) above
# T2 sequence (Q9WMX2 1658-1711, stated change not applied): as the sequence (Q9WMX2 1658-1711) above
# T4 sequence (P00772 27-266): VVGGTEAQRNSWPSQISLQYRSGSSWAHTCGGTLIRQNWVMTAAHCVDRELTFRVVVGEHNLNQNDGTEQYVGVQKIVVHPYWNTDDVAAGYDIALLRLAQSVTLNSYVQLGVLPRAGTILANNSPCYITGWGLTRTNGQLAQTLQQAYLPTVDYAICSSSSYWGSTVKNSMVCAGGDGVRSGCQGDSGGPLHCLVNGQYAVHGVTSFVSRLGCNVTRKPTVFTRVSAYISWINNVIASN
# T3 sequence (P00760 24-246): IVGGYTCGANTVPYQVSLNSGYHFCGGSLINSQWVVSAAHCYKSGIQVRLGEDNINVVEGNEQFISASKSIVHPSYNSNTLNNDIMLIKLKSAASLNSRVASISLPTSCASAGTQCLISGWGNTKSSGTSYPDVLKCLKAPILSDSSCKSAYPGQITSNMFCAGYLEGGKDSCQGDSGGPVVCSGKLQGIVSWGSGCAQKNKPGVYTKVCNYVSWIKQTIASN
# Sequence of human chymotrypsin (P17538 19-263): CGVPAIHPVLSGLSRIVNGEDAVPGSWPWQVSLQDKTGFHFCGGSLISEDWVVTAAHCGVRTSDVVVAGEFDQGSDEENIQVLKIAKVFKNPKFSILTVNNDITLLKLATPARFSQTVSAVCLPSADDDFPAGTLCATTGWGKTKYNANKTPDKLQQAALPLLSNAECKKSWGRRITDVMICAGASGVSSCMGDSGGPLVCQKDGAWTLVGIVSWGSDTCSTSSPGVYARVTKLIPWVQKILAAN
# Sequence of proteinase K (P06873 106-384): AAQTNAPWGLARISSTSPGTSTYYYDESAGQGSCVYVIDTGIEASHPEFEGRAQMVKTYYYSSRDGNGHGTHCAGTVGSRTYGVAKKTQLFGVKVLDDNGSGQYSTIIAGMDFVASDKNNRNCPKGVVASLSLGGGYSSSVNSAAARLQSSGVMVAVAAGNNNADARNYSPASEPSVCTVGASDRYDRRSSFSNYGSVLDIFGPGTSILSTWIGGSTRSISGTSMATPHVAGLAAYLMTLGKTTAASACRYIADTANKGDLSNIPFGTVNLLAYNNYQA
Compound,EC50 [1],CC50 (BM4-5 human liver cells),other results
C[C@H]1CCCCN1CCCNC(=O)C(Cc1c[nH]c2ccccc12)NC(=O)Nc1cccc(Br)c1 (some centres unmarked) [Compound 1],,,"EC50 ([1]; Hepatitis C virus, GT1B): 0.95 ± 0.26 µM; IC50 [2]: 14.7 ± 1.23 µM; IC50 [3]: 11.4 ± 0.45 µM"
CC1CCCCN1CCCNC(=O)C(Cc1c[nH]c2ccc(F)cc12)NC(=O)Nc1cc(Cl)ccc1Cl (centres unmarked) [Compound 2],6.12 ± 2.3 µM,,
CC1CCCCN1CCCNC(=O)C(Cc1c[nH]c2ccccc12)NC(=O)Nc1ccc(N(C)C)cc1 (centres unmarked) [Compound 6],63.4 ± 11 µM,> 100 µM,
Cc1ccc2[nH]cc(CC(NC(=O)Nc3cc(Cl)ccc3Cl)C(=O)NCCCN3CCCCC3C)c2c1 (centres unmarked) [Compound 7],6.35 ± 1.11 µM,,
CC(=O)c1cccc(NC(=O)NC(Cc2c[nH]c3ccccc23)C(=O)NCCCN2CCCCC2C)c1 (centres unmarked) [Compound 8],10.9 ± 4.93 µM,> 100 µM,
COc1ccc(OC)c(NC(=O)NC(Cc2c[nH]c3ccccc23)C(=O)NCCCN2CCCCC2C)c1 (centres unmarked) [Compound 9],51.4 ± 15.2 µM,> 100 µM,
COc1ccc2[nH]cc(CC(NC(=O)Nc3cc(Cl)ccc3Cl)C(=O)NCCCN3CCCCC3C)c2c1 (centres unmarked) [Compound 10],33.2 ± 3.17 µM,> 100 µM,
O=C(Nc1ccccc1Br)NC(Cc1c[nH]c2ccccc12)C(=O)NCCCNC1CC2CCC1C2 (centres unmarked) [Compound 11],5.99 ± 2.61 µM,,
CC(C)c1ccc(NC(=O)NC(Cc2c[nH]c3ccccc23)C(=O)NCCCN2CCCC[C@@H]2C)cc1 (some centres unmarked) [Compound 12],,,"EC50 ([1]; Hepatitis C virus, GT1B): 1.5 ± 0.07 µM; IC50 [2]: 13.1 ± 2.77 µM; IC50 [3]: 11.5 ± 0.55 µM"
CC1CCCCN1CCCNC(=O)C(Cc1c[nH]c2ccccc12)NC(=O)Nc1c(F)cc(Br)cc1F (centres unmarked) [Compound 13],35.4 ± 7.71 µM,,
CC1CCCC(C)N1NCCCNC(=O)C(Cc1c[nH]c2ccccc12)NC(=O)Nc1ccccc1Br (centres unmarked) [Compound 14],5.15 ± 0.63 µM,,
O=C(Nc1cccc(Br)c1)NC(Cc1c[nH]c2ccccc12)C(=O)NCCCNC1CCCCCC1 (centres unmarked) [Compound 15],6.82 ± 0.74 µM,,
CCOC(=O)C1CCCCN1CCCNC(=O)C(Cc1c[nH]c2ccccc12)NC(=O)Nc1ccccc1Br (centres unmarked) [Compound 17],2.98 ± 1.08 µM,,
O=C(Nc1ccccc1Br)NC(Cc1c[nH]c2ccccc12)C(=O)NCCCNC1CCCCC1O (centres unmarked) [Compound 18],4.58 ± 0.32 µM,,
O=C(Nc1ccccc1Br)NC(Cc1c[nH]c2ccccc12)C(=O)NCCCNC1CCC(O)CC1 (centres unmarked) [Compound 19],32.6 ± 14.8 µM,> 100 µM,
O=C(Nc1cccc(Br)c1)N[C@@H](Cc1c[nH]c2ccccc12)C(=O)NCCCN1CCCCC1 [Compound 21],1.3 ± 1.25 µM,29.5 ± 1.48 µM,
CC(C)c1ccc(NC(=O)N[C@@H](Cc2c[nH]c3ccccc23)C(=O)NCCCN2CCCCC2)cc1 [Compound 22],0.64 ± 0.13 µM,47 ± 6.98 µM,"IC50 [2, 6]: 5.2 µM and 4.6 µM; Potency lower than simeprevir ([2]; wt protease IC50 compared with simeprevir): 120 fold; IC50 [3, 7]: 5.98 ± 0.43 µM; IC50—D168A/IC50—wt ratio [4]: 1.4; Change in potency, D168A mutant versus wt protease ([4]; result in words): no significant reduction on potency; Experiment value of logP [5]: 4.1; Decrease of trypsin activity (bovine trypsin): did not decrease activity; Decrease of elastase activity (pig pancreatic elastase): did not decrease activity; Decrease of chymotrypsin activity (human chymotrypsin): did not decrease activity; Decrease of proteinase K activity (proteinase K): did not decrease activity"
"COc1ccc2c(O[C@@H]3C[C@H]4C(=O)N[C@]5(C(=O)NS(=O)(=O)C6CC6)C[C@H]5/C=C\CCCCN(C)C(=O)[C@@H]4C3)cc(-c3nc(C(C)C)cs3)nc2c1C [Simeprevir, reference compound]",,,"IC50 [2, 6]: 0.043 µM; IC50 [3, 7]: 0.247 ± 0.39 µM; IC50—D168A/IC50—wt ratio [4]: 5.7"
